Reference: US7777038B2, “Carbostyril compound” (Otsuka Pharmaceutical Co., Ltd., priority 2004, dated 2010)

Tests used:
[1] = tested on: acetic acid-induced gastric ulcers; assay: Healing effects on rat models with acetic acid-induced gastric ulcers; assay type: in vivo; conditions: oral, once a day for 8 days, dose 10 mg/kg, ulcerated area vs vehicle (0.5% CMC)
Method: Healing Effects on Rat Models with Acetic Acid-Induced Gastric Ulcers
(1) Production of Gastric Ulcer by Acetic Acid
Rats were fasted from the previous day. A celiotomy was done in each rat under ether anesthesia, and the stomach was exteriorized. Subsequently, 20 μL of a 30% acetic acid solution was injected into the submucosa at the junction of the body of the glandular stomach and the pyloric antrum using a disposable syringe to produce a gastric ulcer.
(2) Test Compound Administration
Each test compound was suspended in a 0.5% carboxymethylcelullose (CMC) solution at concentrations of 0.75 or 2.5 mg/ml. The rats were orally administrated once a day for 8 days starting with the forth day from operation at doses of 3 or 10 mg/kg. A gastric tube and a syringe were used for the oral administration. […]
On the next day the vehicle and the test compound were finally administrated to the rats, the rats were sacrificed by exsanguination under anesthesia with ether, and each stomach was removed. The removed stomachs were fixed in 1% formalin for 15 minutes, dissected along the greater curvature of stomach to expose the ulcer, and the ulcerated area was measured. […]
The ulcerated area was measured under a stereo microscope (10×) with an ocular micrometer (1 mm^2/grid), and the percentage healing ratio was calculated. The percentage healing ratio was calculated by the following formula.

[2] = tested on: human Trefoil Factor 2 (hTFF2) gene; assay: hTFF2 gene reporter assay (luciferase) using pGL3-hTFF2pro•pWL-neo/MKN-45 #6-2 cell line; assay type: cell-based; conditions: test compound concentration 10^−6 M; 24 hours culture; luciferase activity as control % of dimethylsulfoxide-added wells (100%)
Method: Transcription promoting activity on human Trefoil Factor 2 (hTFF2) gene of test compounds was evaluated by means of an hTFF2 gene reporter assay.
(1) Preparation of hTFF2 Gene Reporter Vector pGL3-hTFF2pro
DNA was extracted from HeLa cells (CCL-2, DAINIPPON PHARMACEUTICAL CO., LTD.) using a deoxyribonucleic acid (DNA) extraction kit (DNeasy™ Tissue Kit, manufactured by QIAGEN). The hTFF2 promoter region was amplified using the extracted DNA as a template by means of the polymerase chain reaction (PCR). The oligomers 5′-[…]-3′ and 5′-[…]-3′ were selected as PCR primers to be amplified, based on the report by Beck et al. (Beck S., Sommer P., Blin N., Gott P., 5′-flanking motifs control cell-specific expression of trefoil factor genes (TFF), Int. J. Mol. Med. 2(3), 353-361 (1998)). Platinum® Pfx DNA polymerase was used as DNA polymerase. The PCR was performed under the conditions of denaturing for 30 seconds at 95° C., annealing for 30 seconds at 55° C. and extending for 75 seconds at 68° C., and the procedures were repeated for 32 cycles.
The PCR products were separated and purified by 1% agarose gel electrophoresis, and cloned to a pCR-BluntII-TOPO vector attached to a cloning kit (Zero Blunt® TOPO® PCR Cloning Kit, manufactured by Invitrogen Corporation). The produced plasmid pCR-Blunt-TFF2pro was introduced into E. coli for transformation (TOP 10 Ultracomp™ Cells, manufactured by Invitrogen Corporation), and transformant strain pCR-Blunt-TFF2pro/TOP10 was selectively cultured in LB agar medium containing 30 μg/ml of Zeocin (Zeocin, manufactured by Invitrogen Corporation). The pCR-Blunt-TFF2pro/TOP10 was subjected to shaking culture in 50 ml of LB medium containing 30 μg/ml of Zeocin at 37° C. over night, and a plasmid was prepared using a plasmid preparation kit (Concert™ High Purity Midiprep System, manufactured by GIBCO BRL).
The nucleotide sequence of the PCR product cloned to the plasmid pCR-Blunt-TFF2pro was determined. The determined nucleotide sequence was compared with the counterpart of hTFF2 promoter region reported in a gene bank (GenBank accession AB038162). The nucleotide sequence of the MluI-HindIII region cloned in pCR-Blunt-TFF2pro was identical to GenBank accession AB038162 (FIG. 1).
The underlined portions indicate the recognition sequence (ACGCGT) of the restriction enzyme MluI and the recognition sequence (AAGCTT) of the restriction enzyme HindIII. The nucleotide sequences of the MluI-HindIII region are identical between the hTFF2 promoter region reported in GenBank and the PCR product cloned to the plasmid pCR-Blunt-TFF2pro. […]

Compound	Healing Ratio (%) [1] [%]	melting point [°C]	TFF2 Production Promoting Activity [2]
COc1ccc(CC2SC(=O)NC2=O)c2ccc(=O)n(C)c12 (centres unmarked) [Example 1, 5-(8-methoxy-1-methyl-2-oxo-1,2-dihydroquinolin-5-ylmethyl)thiazolidine-2,4-dione]	>20	254 to 255	
COc1ccc(CC2SC(=O)NC2=O)c2c1N(Cc1ccc(NC(=O)c3ccc4ccccc4c3)cc1)C(=O)CC2 (centres unmarked) [Example 22, 5-{8-methoxy-1-[4-(2-naphthoylamino)benzyl]-2-oxo-1,2,3,4-tetrahydroquinolin-5-ylmethyl}thiazolidine-2,4-dione]			++ (a TFF2 production promoting activity of 1000% or higher at a test compound concentration of 10^−6 M)
COC(=O)c1ccc(CN2C(=O)CCc3c(CC4SC(=O)NC4=O)ccc(OC)c32)cc1 (centres unmarked) [Example 25, 5-[8-methoxy-1-(4-methoxycarbonylbenzyl)-2-oxo-1,2,3,4-tetrahydroquinolin-5-ylmethyl]thiazolidine-2,4-dione]		193.1 to 195.5	++ (a TFF2 production promoting activity of 1000% or higher at a test compound concentration of 10^−6 M)
CCCCOc1ccc(CC2SC(=O)NC2=O)c2c1N(Cc1ccccc1)C(=O)CC2 (centres unmarked) [Example 32, 5-(1-benzyl-8-butoxy-2-oxo-1,2,3,4-tetrahydroquinolin-5-ylmethyl)thiazolidine-2,4-dione]			+ (a TFF2 production promoting activity of 300% or higher at a test compound concentration of 10^−6 M)
COC(=O)CN1C(=O)SC(Cc2ccc(OC)c3c2ccc(=O)n3C)C1=O (centres unmarked) [Example 43, 3-methoxycarbonylmethyl-5-(8-methoxy-1-methyl-2-oxo-1,2-dihydroquinolin-5-ylmethyl)thiazolidine-2,4-dione]		182 to 184	
O=C1NC(=S)SC1Cc1cccc2c1CCC(=O)N2Cc1ccc(-c2ccccc2)cc1 (centres unmarked) [Example 46, 1-(biphenyl-4-ylmethyl)-5-(4-oxo-2-thioxothiazolidin-5-ylmethyl)-3,4-dihydro-1H-quinolin-2-one]		186.3 to 187.1	
O=C1NC(=S)SC1Cc1cccc2c1CCC(=O)N2Cc1ccc(Br)cc1 (centres unmarked) [Example 47, 1-(4-bromobenzyl)-5-(4-oxo-2-thioxothiazolidin-5-ylmethyl)-3,4-dihydro-1H-quinolin-2-one]		191.3 to 192.1	
O=C1NC(=O)C(Cc2cc(=O)[nH]c3ccccc23)S1 (centres unmarked) [Example 111]		290 to 291	
Cn1c(=O)cc(CC2SC(=O)NC2=O)c2ccccc21 (centres unmarked) [Example 112]		246 to 248	
CN1C(=O)SC(Cc2cc(=O)n(C)c3ccccc23)C1=O (centres unmarked) [Example 113]		143 to 145	
COc1ccc(CC2SC(=O)NC2=O)c2c1N(C)C(=O)CC2 (centres unmarked) [Example 145]		204 to 208	
COc1ccc(CC2SC(=O)NC2=O)c2c1NC(=O)CC2 (centres unmarked) [Example 146]		253 to 256	
CCN1C(=O)CCc2c(CC3SC(=O)NC3=O)ccc(OC)c21 (centres unmarked) [Example 147]		179 to 181	
CCNC(=O)Nc1ccc(CN2C(=O)CCc3c(CC4SC(=O)NC4=O)ccc(OC)c32)cc1 (centres unmarked) [Example 227]		195.7 to 196.9	
CCC(=O)Nc1ccc(CN2C(=O)CCc3c(CC4SC(=O)NC4=O)ccc(OC)c32)cc1 (centres unmarked) [Example 228]		198.3 to 200.3	
COc1ccc(CC2SC(=O)NC2=O)c2c1N(Cc1ccc(NC(C)=O)cc1)C(=O)CC2 (centres unmarked) [Example 229]		215.2 to 217.8	
COC(=O)Nc1ccc(CN2C(=O)CCc3c(CC4SC(=O)NC4=O)ccc(OC)c32)cc1 (centres unmarked) [Example 230]		136.3 to 138.6	
COc1ccc(CC2SC(=O)NC2=O)c2c1N(Cc1ccc(NC(=O)c3cccnc3)cc1)C(=O)CC2 (centres unmarked) [Example 231]		233 to 234.2	
CC(=O)N1CCC(CCN2C(=O)CCc3c(CC4SC(=O)NC4=O)cccc32)CC1 (centres unmarked) [Example 614]		209.5 to 211	
COc1ccc(CC2SC(=S)NC2=O)c2c1N(CCC(C)C)C(=O)CC2 (centres unmarked) [Example 1315, 8-methoxy-1-(3-methylbutyl)-5-(4-oxo-2-thioxothiazolidin-5-ylmethyl)-3,4-dihydro-1H-quinolin-2-one]		139.5 to 141	++ (a TFF2 production promoting activity of 1000% or higher at a test compound concentration of 10^−6 M)
